Reference: patent US12000825B2, “Method of selecting stem cells having ability to produce extracellular vesicles with high efficiency using activation of protease-activated receptor-mediated signaling pathways” (SAMSUNG LIFE PUBLIC WELFARE FOUNDATION, priority 2019, dated 2024)
“Also recorded” adds a separate entry of the source.

Key:
[1] = system: Human umbilical cord blood-derived mesenchymal stem cells (MSCs); assay: Isolation and quantification of extracellular vesicles (NanoSight); format: cell-based; conditions: for production of EVs: 6 hours, FIG. 1A
Protocol: (§1) To pretreat the umbilical cord blood-derived mesenchymal stem cells with thrombin, first, the mesenchymal stem cells were cultured in α-MEM (Gibco, Grand Island, NY, USA) supplemented with 10% (v/v) fetal bovine serum (FBS, Gibco), 100 units/mL penicillin, and 100 μg/mL streptomycin (Invitrogen, Carlsbad, CA, USA) under standard culture conditions. When the cells reached approximately 90% confluency in a culture plate, the cells were washed three times with phosphate buffered saline (PBS) to remove contaminated FBS-derived exosomes, and were then incubated in new serum-free α-MEM supplemented with human recombinant thrombin (1 U/mL, 2 U/mL, and 4 U/mL; Sigma-Aldrich, St. Louis, MO, USA) for 6 hours. After the medium was collected, about 2×10^6 cells per 100 mm culture dish was counted using a Luna-FL™ system (Logos Biosystems, Anyang-si, Korea).
To isolate extracellular vesicles (hereinafter, referred to as EVs) secreted by the umbilical cord blood-derived mesenchymal stem cells pretreated with thrombin according to the method of Example 1-1, an experiment was conducted according to the following processes. Specifically, the above recovered medium was centrifuged at 3,000 rpm and 4° C. for 30 minutes to remove cell debris, and then centrifuged at 100,000 rpm and 4° C. for 120 minutes to precipitate EVs. Then, the precipitated pellet was washed twice, re-suspended in sterile PBS, and stored at −80° C. until use.
The distribution of EVs was analyzed by measuring the rate of Brownian motion using NanoSight (NanoSight NS300; Malvern, Worcestershire, UK), which is equipped with fast video capture and particle-tracking software. The obtained EVs were re-suspended in PBS (500 μl, 1 mg/mL total protein), and size and polydispersity thereof were measured. In addition, to quantify the production of EVs by a single cell, cells were counted using a LUNA-FL system according to the manufacturer's protocol using the medium recovered above. The number of EVs produced by a single cell was calculated by dividing the total number of EVs by the number of cells.

[2] = system: Human umbilical cord blood-derived mesenchymal stem cells (MSCs); assay: Bioplex assay / ELISA of proteins in EVs (VEGF, angiogenin, angiopoietin-1, HGF); format: cell-based
Protocol: as §1
To analyze the cytokine levels of EVs by ELISA, an experiment was conducted using the following method. Specifically, a homogenate of isolated EVs was added to a well containing 0.1 mL of lysis buffer in an ELISA kit. Subsequently, proteins in EVs were quantified using the Bradford method, and then 1 μg of protein was loaded into each well. Thereafter, the levels of angiogenin, angiopoietin-1, VEGF, and HGF, which are present in EVs, were quantified using the Fluorokine® MAP Human Angiogenesis Custom Premix Kit A (R & D Systems, Minneapolis, MN, USA).

[3] = system: Human umbilical cord blood-derived mesenchymal stem cells (MSCs); assay: Early endosome labeling (CellLight Early Endosomes-GFP); format: cell-based
Protocol: Early endosomes were labeled using CellLight® reagent-green fluorescent protein (GFP), BacMam 2.0 (Thermo Fisher Scientific, San Jose, CA, USA) according to the manufacturer's instructions. Briefly, mesenchymal stem cells were dispensed in a 12-well plate at a density of 1.5×10^4 per well, and after cells were attached, BacMam 2.0 reagent was added at a concentration of 40 particles per cell (PPC). Next, to measure Rab5α-GFP expression, early endosomes were labeled using CellLight® early endosomes-GFP, BacMam 2.0. Thereafter, to estimate the number of GFP-labeled endosomes, the optical density of green immunofluorescence was measured using ImageJ (National Institutes of Health, Bethesda, MD, USA).

[4] = system: Rab-5 and EEA-1; assay: Immunoblot of early endosome markers; format: cell-based, human
Protocol: (§2) Umbilical cord blood-derived mesenchymal stem cells and EVs were lysed by adding an equal volume of RIPA buffer (Sigma-Aldrich, St. Louis, MO, USA). The protein contents of the lysates were quantified using the Bradford method, and samples containing 10 μg of proteins were mixed with loading buffer containing β-mercaptoethanol, boiled for 10 minutes, and separated according to size by 12% SDS-polyacrylamide gel electrophoresis (SDS-PAGE). Subsequently, the separated proteins were transferred to nitrocellulose membranes, and then a 5% bovine serum albumin (BSA) solution was prepared with 0.5% Tween-20-containing 1×PBS-T, the membranes were blocked therewith at room temperature, followed by treatment with primary antibodies and incubation at room temperature for 1 hour. After incubation, the membranes were washed with 1×PBS-T, followed by incubation with anti-mouse or anti-rabbit horseradish peroxidase-conjugated immunoglobulin G (1:2000) secondary antibodies while being stirred at room temperature for 1 hour. Subsequently, after washing with PBS-T, protein bands were detected using an ECL Select chemiluminescence reagent (GE Healthcare Life Sciences, Piscataway, NJ, USA), and band images were acquired with X-ray films.

[5] = system: ERK1/2 and AKT signaling pathways; assay: Immunoblot of ERK1/2 and AKT phosphorylation; format: cell-based, human
Protocol: as §2

[6] = system: Human umbilical cord blood-derived mesenchymal stem cells (MSCs); assay: Observation of EVs by SEM and TEM; format: cell-based; conditions: thrombin-pretreated vs not treated, FIG. 1D
Protocol: EVs (5 μl) were fixed with 2% glutaraldehyde, loaded on 200-mesh formvar/carbon-coated electron microscopy grids (Electron Microscopy Sciences, Washington, PA, USA), and incubated for 10 minutes. Subsequently, the EVs were washed with filtered distilled water and stained with 2% uranyl acetate in water for 1 minute. Thereafter, the stained EVs were observed using a Tecnai Spirit G2 transmission electron microscope (FEI, Hillsboro, OR, USA) operating at 120 kV, and then an image thereof was acquired.
Meanwhile, to observe isolated EVs using a scanning electron microscope, EVs were fixed in 2.5% glutaraldehyde and loaded on a polycarbonate membrane. Next, the membrane was washed once with PBS and water and then dehydrated with acetone. Subsequently, the acetone was removed by critical point drying using liquid carbon dioxide. Samples were mounted on aluminum stubs with carbon tape and mounted on an SEM stub. After sputter coating with 3-5 nm platinum, the samples were observed using a scanning electron microscope (Zeiss Auriga Workstation, Oberkochen, Germany) and images thereof were acquired.

[7] = compared to no thrombin, in proportion to thrombin concentration

CC(C)c1ccc(Cn2ccc3c4c(N)nc(NC5CC5)nc4ccc32)cc1.Cl.Cl [SCH79797, N3-cyclopropyl-7-[[4-(1-methylethyl)phenyl]methyl]-7H-pyrrolo[3,2-f]quinazolin-1,3-diamine dihydrochloride, reference compound]
increase in the number of extracellular vesicles by thrombin, comparison ([1]; compared to transfection with PAR3 siRNA, FIGS. 5B and 5C): inhibited at a higher level
increase in the number of extracellular vesicles by thrombin treatment ([1]; thrombin-pretreated MSC culture media, SCH79797 1 μM, FIGS. 5B and 5C): significantly inhibited
increase in the levels of proteins in EVs, comparison ([2]; compared to transfection with PAR3 siRNA, FIG. 5D): inhibited at a higher level
increase in the levels of VEGF, angiogenin, angiopoietin-1 and HGF in EVs ([2]; thrombin-pretreated MSCs, SCH79797 1 μM, FIG. 5D): significantly inhibited
increase in the number of early endosomes by thrombin, comparison ([3]; compared to transfection with PAR3 siRNA, FIG. 5A): more significantly inhibited
increase in the number of early endosomes by thrombin treatment ([3]; thrombin-pretreated MSCs, SCH79797 1 μM, FIG. 5A): significantly inhibited
expression levels of Rab-5 and EEA-1, comparison ([4]; thrombin-pretreated MSCs, compared to the PAR3 siRNA-treated group, FIG. 4A): further reduced
expression levels of Rab-5 and EEA-1 ([4]; thrombin-pretreated MSCs, compared to thrombin alone, SCH79797 1 μM, FIG. 4A): significantly reduced
increase in phosphorylation of ERK1/2 and AKT by thrombin, comparison ([5]; compared to PAR-3-specific siRNA treatment, FIG. 4B): inhibited at a more significant level
increase in phosphorylation of ERK1/2 and AKT by thrombin pretreatment ([5]; thrombin-pretreated MSCs, SCH79797 1 μM, FIG. 4B): significantly inhibited

thrombin
amount of produced extracellular vesicles, increase [1, 7]: ≥ 5 fold
production of EVs ([1]; thrombin 1-4 U/mL): increased in a thrombin concentration-dependent manner
production of EVs ([1]; thrombin 2 U/mL and 4 U/mL): significantly increased
number of isolated EVs ([1]; thrombin-pretreated vs not treated, FIG. 1E): greater number
levels of proteins in extracellular vesicles, increase [2, 7]: ≥ 2 fold
levels of VEGF, angiogenin, angiopoietin-1 and HGF in EVs ([2]; thrombin 2 U/mL and 4 U/mL vs not treated, FIG. 1B): significantly increased
level of early endosomes ([3]; thrombin-pretreated vs naive, FIG. 1C): significantly increased; also recorded: significantly high level
expression levels of early endosome markers Rab-5 and EEA-1 ([4]; thrombin treatment vs none, FIG. 3A): significantly increased
expression of non-phosphorylated ERK1/2 and AKT ([5]; thrombin treatment, not statistically significant, FIG. 3B): tended to increase slightly
expression of pERK1/2 and pAKT (phosphorylation of ERK1/2 and AKT) ([5]; thrombin-pretreated vs not treated, FIG. 3B): significantly increased
EVs observed by SEM/TEM [6]: more EVs were observed
